Experimental data taken from ChEMBL document CHEMBL4507268 (2021).

How the values were obtained:
[1] = target: Tyrosine-protein kinase JAK1 (Homo sapiens) (UniProt P23458); conditions: Compound concentration 1000.0 nM
[2] = target: LIM domain kinase 2 (Homo sapiens) (UniProt P53671); conditions: Compound concentration 1000.0 nM
[3] = target: Mitogen-activated protein kinase kinase kinase 10 (Homo sapiens) (UniProt Q02779); conditions: Compound concentration 1000.0 nM
[4] = tested on: Tyrosine-protein kinase ABL1 (Homo sapiens), P00519 [H396P]; conditions: Compound concentration 1000.0 nM
[5] = target: T1, Dual specificity mitogen-activated protein kinase kinase 6 (Homo sapiens) (UniProt P52564); conditions: Compound concentration 1000.0 nM
T1 sequence (whole entry): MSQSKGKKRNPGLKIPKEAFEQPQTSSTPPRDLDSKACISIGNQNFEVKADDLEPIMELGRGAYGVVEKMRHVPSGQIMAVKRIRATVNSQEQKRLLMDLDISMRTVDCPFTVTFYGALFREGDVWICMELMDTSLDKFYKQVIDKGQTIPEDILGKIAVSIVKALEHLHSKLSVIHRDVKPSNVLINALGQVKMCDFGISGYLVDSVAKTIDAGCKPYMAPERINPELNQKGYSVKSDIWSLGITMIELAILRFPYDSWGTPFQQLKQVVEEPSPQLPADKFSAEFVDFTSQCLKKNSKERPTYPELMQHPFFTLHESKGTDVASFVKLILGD

[6] = target: Serine/threonine-protein kinase RIO1 (Homo sapiens) (UniProt Q9BRS2); conditions: Compound concentration 1000.0 nM
[7] = target: Hepatocyte growth factor receptor (Homo sapiens) (UniProt P08581); conditions: Compound concentration 1000.0 nM
[8] = target: Serine/threonine-protein kinase mTOR (Homo sapiens) (UniProt P42345); conditions: Compound concentration 1000.0 nM
[9] = target: Casein kinase I isoform delta (Homo sapiens) (UniProt P48730); conditions: Compound concentration 1000.0 nM
[10] = target: T2, Myosin-IIIb (Homo sapiens) (UniProt Q8WXR4); conditions: Compound concentration 1000.0 nM
T2 sequence (whole entry): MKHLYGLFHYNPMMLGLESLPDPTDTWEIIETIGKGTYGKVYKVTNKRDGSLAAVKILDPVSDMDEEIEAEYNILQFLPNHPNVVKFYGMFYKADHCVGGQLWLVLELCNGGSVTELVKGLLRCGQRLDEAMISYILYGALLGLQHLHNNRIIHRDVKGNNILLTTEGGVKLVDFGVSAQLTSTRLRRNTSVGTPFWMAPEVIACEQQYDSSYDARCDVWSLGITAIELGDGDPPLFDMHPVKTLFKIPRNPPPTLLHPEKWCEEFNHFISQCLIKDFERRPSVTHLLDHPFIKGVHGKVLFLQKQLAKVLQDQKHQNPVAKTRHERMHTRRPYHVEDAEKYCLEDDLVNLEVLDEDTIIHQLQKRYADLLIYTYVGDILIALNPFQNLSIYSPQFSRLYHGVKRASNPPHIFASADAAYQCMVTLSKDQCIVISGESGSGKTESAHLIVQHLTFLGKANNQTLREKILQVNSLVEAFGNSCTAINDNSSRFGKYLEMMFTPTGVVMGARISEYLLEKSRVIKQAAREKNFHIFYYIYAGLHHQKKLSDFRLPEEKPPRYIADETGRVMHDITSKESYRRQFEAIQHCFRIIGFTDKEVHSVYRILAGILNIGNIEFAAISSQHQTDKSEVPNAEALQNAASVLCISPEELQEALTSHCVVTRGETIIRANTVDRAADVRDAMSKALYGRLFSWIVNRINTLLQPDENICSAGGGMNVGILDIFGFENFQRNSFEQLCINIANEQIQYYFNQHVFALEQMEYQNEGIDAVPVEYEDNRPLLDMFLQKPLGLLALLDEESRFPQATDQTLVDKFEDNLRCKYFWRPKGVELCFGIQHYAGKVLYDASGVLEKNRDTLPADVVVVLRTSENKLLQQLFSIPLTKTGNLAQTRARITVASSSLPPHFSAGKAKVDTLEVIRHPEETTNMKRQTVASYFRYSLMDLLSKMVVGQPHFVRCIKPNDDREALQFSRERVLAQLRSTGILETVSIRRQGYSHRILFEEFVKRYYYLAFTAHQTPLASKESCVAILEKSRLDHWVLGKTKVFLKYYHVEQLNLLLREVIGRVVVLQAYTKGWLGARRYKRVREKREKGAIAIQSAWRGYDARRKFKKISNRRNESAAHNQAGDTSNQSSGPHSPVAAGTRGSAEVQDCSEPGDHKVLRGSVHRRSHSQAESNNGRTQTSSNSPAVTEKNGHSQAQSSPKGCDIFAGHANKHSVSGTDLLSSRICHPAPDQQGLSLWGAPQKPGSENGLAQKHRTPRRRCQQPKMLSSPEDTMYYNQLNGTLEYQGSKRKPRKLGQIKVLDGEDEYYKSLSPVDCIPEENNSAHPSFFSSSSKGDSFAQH

[11] = target: D(3) dopamine receptor (Homo sapiens) (UniProt P35462); conditions: Compound concentration 10.0 uM
Chain of D(3) dopamine receptor (Homo sapiens) (P35462 whole entry): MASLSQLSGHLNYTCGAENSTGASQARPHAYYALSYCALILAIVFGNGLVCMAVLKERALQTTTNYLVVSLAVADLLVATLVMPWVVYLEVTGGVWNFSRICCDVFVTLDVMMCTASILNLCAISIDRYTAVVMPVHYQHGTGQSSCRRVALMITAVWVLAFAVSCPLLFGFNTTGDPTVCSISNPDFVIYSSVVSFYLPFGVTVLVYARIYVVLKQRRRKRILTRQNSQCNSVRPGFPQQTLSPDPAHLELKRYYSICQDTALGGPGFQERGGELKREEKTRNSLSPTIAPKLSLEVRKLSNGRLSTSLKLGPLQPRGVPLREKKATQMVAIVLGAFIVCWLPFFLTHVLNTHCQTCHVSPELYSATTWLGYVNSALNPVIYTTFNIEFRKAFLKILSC

Chain of LIM domain kinase 2 (Homo sapiens) (P53671 whole entry, looked up, the tested form may be a part): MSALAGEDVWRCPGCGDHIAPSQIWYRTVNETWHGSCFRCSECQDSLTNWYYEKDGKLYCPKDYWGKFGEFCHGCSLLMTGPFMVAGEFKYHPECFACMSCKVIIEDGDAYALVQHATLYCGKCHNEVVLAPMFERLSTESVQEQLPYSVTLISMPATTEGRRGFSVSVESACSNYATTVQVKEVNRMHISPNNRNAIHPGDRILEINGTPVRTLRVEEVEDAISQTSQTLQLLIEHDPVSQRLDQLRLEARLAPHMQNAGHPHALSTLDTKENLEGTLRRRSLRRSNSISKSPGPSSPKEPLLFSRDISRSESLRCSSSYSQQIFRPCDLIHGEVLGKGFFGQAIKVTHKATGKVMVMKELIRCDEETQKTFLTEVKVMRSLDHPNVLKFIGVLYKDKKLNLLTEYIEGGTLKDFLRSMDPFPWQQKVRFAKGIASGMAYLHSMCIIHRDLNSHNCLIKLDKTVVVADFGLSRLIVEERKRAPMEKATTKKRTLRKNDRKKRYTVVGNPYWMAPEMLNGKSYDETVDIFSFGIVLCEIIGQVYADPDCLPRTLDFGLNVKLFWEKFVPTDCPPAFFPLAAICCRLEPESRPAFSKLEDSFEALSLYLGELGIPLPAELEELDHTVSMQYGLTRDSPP
Chain of Serine/threonine-protein kinase RIO1 (Homo sapiens) (Q9BRS2 whole entry): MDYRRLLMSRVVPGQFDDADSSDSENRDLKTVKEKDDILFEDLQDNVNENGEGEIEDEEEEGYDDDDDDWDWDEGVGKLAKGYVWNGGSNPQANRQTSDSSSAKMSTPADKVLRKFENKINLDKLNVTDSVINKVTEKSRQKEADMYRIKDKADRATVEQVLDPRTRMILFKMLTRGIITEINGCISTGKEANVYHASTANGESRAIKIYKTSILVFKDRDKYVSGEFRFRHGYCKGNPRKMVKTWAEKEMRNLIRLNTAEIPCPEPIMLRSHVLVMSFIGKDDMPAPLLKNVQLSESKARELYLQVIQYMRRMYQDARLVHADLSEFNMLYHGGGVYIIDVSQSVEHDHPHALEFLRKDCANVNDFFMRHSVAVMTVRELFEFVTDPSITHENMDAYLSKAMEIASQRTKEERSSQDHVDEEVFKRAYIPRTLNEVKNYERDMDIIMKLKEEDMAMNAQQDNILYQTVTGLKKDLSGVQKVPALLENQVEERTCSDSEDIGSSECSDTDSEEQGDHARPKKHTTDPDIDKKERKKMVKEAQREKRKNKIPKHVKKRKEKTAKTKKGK
Chain of Casein kinase I isoform delta (Homo sapiens) (P48730 whole entry, looked up, canonical isoform): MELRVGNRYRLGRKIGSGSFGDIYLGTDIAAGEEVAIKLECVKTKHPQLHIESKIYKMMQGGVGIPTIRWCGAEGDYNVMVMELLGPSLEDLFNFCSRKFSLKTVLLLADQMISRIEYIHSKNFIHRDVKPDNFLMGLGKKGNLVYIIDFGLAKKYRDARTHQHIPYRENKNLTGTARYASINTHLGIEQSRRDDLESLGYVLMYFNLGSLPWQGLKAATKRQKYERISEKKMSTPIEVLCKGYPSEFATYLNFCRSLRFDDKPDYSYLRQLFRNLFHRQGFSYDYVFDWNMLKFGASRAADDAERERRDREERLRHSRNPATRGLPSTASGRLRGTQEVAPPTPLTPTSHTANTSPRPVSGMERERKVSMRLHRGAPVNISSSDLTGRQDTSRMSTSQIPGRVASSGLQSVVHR
Chain of Hepatocyte growth factor receptor (Homo sapiens) (P08581 whole entry): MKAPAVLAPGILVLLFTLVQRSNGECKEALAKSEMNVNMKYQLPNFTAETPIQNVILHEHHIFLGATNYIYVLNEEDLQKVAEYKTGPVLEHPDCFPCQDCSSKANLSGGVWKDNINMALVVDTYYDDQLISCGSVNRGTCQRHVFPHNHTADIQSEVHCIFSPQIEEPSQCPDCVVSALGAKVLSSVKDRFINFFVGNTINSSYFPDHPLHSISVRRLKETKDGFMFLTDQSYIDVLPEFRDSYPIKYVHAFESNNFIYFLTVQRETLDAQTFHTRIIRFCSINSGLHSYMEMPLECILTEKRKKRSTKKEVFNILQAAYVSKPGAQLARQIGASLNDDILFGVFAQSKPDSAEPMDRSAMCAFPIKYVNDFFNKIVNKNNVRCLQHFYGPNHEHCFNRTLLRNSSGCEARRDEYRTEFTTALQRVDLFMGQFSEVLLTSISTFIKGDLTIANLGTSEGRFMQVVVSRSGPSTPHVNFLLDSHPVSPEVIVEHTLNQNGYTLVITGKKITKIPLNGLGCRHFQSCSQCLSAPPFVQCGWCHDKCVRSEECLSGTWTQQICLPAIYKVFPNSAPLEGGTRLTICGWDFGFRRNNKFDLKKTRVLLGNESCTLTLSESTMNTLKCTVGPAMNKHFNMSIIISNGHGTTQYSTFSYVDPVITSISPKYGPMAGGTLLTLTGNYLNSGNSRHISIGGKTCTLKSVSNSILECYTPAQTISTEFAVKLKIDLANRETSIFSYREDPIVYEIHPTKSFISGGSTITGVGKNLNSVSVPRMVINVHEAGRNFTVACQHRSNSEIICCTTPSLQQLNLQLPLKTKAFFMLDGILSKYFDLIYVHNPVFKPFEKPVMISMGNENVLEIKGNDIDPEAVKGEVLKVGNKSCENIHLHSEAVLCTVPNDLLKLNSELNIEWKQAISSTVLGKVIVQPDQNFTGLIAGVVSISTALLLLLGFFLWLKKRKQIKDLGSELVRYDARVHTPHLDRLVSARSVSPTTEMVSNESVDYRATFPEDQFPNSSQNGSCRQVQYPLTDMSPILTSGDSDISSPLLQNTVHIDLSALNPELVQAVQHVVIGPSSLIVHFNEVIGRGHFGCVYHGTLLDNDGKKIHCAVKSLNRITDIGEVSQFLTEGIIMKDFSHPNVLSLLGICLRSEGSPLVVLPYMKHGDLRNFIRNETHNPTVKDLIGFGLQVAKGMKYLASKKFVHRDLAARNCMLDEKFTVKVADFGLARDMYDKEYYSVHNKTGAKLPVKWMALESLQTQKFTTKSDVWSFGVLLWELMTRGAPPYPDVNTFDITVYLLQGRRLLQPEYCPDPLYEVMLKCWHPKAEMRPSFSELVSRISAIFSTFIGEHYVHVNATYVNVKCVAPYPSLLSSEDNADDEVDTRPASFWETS
Chain of Mitogen-activated protein kinase kinase kinase 10 (Homo sapiens) (Q02779 whole entry, looked up): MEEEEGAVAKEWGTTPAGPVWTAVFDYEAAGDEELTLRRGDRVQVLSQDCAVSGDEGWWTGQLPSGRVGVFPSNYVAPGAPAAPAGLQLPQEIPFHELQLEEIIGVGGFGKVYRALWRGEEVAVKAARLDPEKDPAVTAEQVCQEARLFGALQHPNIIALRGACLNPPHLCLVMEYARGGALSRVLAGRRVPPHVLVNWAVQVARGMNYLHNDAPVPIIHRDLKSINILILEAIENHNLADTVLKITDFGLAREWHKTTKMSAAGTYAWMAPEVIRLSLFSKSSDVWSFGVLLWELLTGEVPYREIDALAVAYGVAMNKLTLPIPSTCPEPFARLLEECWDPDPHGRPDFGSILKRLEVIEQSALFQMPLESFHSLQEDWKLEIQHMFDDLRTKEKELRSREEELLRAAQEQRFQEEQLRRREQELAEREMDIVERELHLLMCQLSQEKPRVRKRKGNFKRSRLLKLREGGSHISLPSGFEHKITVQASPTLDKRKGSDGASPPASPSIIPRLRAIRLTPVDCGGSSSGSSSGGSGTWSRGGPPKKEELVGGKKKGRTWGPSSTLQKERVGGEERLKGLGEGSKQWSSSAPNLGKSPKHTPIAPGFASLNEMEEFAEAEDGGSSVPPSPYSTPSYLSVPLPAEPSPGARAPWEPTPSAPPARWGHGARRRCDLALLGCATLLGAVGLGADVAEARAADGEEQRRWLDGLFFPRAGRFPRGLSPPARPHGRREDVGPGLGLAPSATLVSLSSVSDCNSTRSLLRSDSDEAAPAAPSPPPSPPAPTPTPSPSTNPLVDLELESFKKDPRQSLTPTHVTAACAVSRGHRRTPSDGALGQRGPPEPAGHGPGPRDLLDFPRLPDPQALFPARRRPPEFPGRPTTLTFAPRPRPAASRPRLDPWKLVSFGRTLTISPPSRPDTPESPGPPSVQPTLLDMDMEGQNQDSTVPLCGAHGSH

CN1CCN(c2cnc3c(C4CCN(C(=O)c5ccc(OC(F)(F)F)cc5N)CC4)ncnc3c2)CC1 [BAY-885]
inactive: residual activity [1] 100% | residual activity [2] 100% | residual activity [3] 100% | residual activity [4] 76% | residual activity [5] 88% | residual activity [6] 100% | residual activity [7] 69% | residual activity [8] 78% | residual activity [9] 100% | residual activity [10] 73% | inhibition [11] 7.59%

Cc1nc(C2CCN(C(=O)c3ccc(OC(F)(F)F)cc3N)CC2)c2ncc(N3CCN(C)CC3)cc2n1 [BAY-693]
inactive: residual activity [1] 95% | residual activity [2] 95% | residual activity [3] 100% | residual activity [4] 78% | residual activity [5] 97% | residual activity [6] 100% | residual activity [7] 94% | residual activity [8] 78% | residual activity [9] 83% | residual activity [10] 71% | inhibition [11] -8.88%
